Experimental data taken from ChEMBL document CHEMBL1255486, “Effect of vicriviroc on the QT/corrected QT interval and central nervous system in healthy subjects” (Antimicrob Agents Chemother, 2010).

Columns and labels:
[1] = tested on: Homo sapiens; assay: Toxicity in healthy human assessed as nausea at 250 […], po administered as single dose; type: organism-based; design: route oral; settings: in vivo
[2] = AUC (0 to 24 hrs) in healthy human at 200 mg/kg, po once daily for 7 days measured after 1 day of last dose; type: ADME, organism-based; design: time < 24 hr, dose 200 mg/kg, route oral; settings: plasma
[3] = tested on: Homo sapiens; assay: Toxicity in healthy human assessed as nausea at 200 […], po once daily for 7 days; type: organism-based; design: route oral; settings: in vivo, 168 h
[4] = Cmax in healthy human at 200 mg/kg, po once daily for 7 days measured after 1 day of last dose; type: ADME, organism-based; design: dose 200 mg/kg, route oral; settings: in vivo
[5] = tested on: Homo sapiens; assay: Toxicity in healthy human assessed as fatigue at 250 […], po once daily for 7 days; type: organism-based; design: route oral; settings: in vivo, 168 h
[6] = Tmax in healthy human at 150 […], po once daily for 7 days measured after 1 day of last dose; type: ADME, organism-based; design: dose 150 mg/kg, route oral; settings: in vivo
[7] = tested on: Homo sapiens; assay: Toxicity in healthy human assessed as pollakiuria at 250 […], po administered as single dose; type: organism-based; design: route oral; settings: in vivo
[8] = Tmax in healthy human at 200 mg/kg, po once daily for 7 days; type: ADME, organism-based; design: dose 200 mg/kg, route oral; settings: in vivo
[9] = tested on: Homo sapiens; assay: Toxicity in healthy human assessed as EEG abnormality at 250 mg/kg, po once daily for 7 days; type: organism-based; design: dose 250 mg/kg, route oral; settings: in vivo, 168 h
[10] = AUC (0 to 24 hrs) in healthy human at 150 […], po once daily for 7 days; type: ADME, organism-based; design: time < 24 hr, dose 150 mg/kg, route oral; settings: plasma
[11] = tested on: Homo sapiens; assay: Toxicity in healthy human assessed as fatigue at 150 […], po once daily for 7 days; type: organism-based; design: route oral; settings: in vivo, 168 h
[12] = tested on: Homo sapiens; assay: Toxicity in healthy human assessed as back pain at 250 mg/kg, po once daily for 7 days; type: organism-based; design: dose 250 mg/kg, route oral; settings: in vivo, 168 h
[13] = tested on: Homo sapiens; assay: Toxicity in healthy human assessed as pollakiuria at 300 […], po administered as single dose; type: organism-based; design: route oral; settings: in vivo
[14] = AUC (0 to 24 hrs) in healthy human at 30 mg/kg, po after 10 days; type: ADME, organism-based; design: time < 24 hr, dose 30 mg/kg, route oral; settings: plasma
[15] = tested on: Homo sapiens; assay: Toxicity in healthy human assessed as back pain at 300 mg/kg, po administered as single dose; type: organism-based; design: dose 300 mg/kg, route oral; settings: in vivo
[16] = Cmax in healthy human at 200 mg/kg, po once daily for 7 days; type: ADME, organism-based; design: dose 200 mg/kg, route oral; settings: in vivo
[17] = tested on: Homo sapiens; assay: Toxicity in healthy human assessed as EEG abnormality at 250 mg/kg, po administered as single dose; type: organism-based; design: dose 250 mg/kg, route oral; settings: in vivo
[18] = tested on: Homo sapiens; assay: Toxicity in healthy human assessed as EEG abnormality at 300 mg/kg, po administered as single dose; type: organism-based; design: dose 300 mg/kg, route oral; settings: in vivo
[19] = Cmax in healthy human at 250 mg/kg, po administered as single dose after 1 day; type: ADME, organism-based; design: dose 250 mg/kg, route oral; settings: in vivo
[20] = tested on: Homo sapiens; assay: Toxicity in healthy human assessed as nausea at 150 […], po once daily for 7 days; type: organism-based; design: route oral; settings: in vivo, 168 h
[21] = AUC (0 to 24 hrs) in healthy human at 200 mg/kg, po once daily for 7 days; type: ADME, organism-based; design: time < 24 hr, dose 200 mg/kg, route oral; settings: plasma
[22] = tested on: Homo sapiens; assay: Toxicity in healthy human assessed as headache at 200 […], po administered as single dose; type: organism-based; design: route oral; settings: in vivo
[23] = AUC (0 to infinity) in healthy human at 250 mg/kg, po administered as single dose after 1 day; type: ADME, organism-based; design: time infinity, dose 250 mg/kg, route oral; settings: plasma
[24] = AUC (0 to infinity) in healthy human at 300 mg/kg, po administered as single dose after 1 day; type: ADME, organism-based; design: time infinity, dose 300 mg/kg, route oral; settings: plasma
[25] = tested on: Homo sapiens; assay: Toxicity in healthy human assessed as puncture site pain at 300 […], po administered as single dose; type: organism-based; design: route oral; settings: in vivo
[26] = tested on: Homo sapiens; assay: Toxicity in healthy human assessed as fatigue at 250 […], po administered as single dose; type: organism-based; design: route oral; settings: in vivo
[27] = tested on: Homo sapiens; assay: Toxicity in healthy human assessed as increase in blood […] at 300 […], po once daily for 7 days; type: organism-based; design: route oral; settings: in vivo, 168 h
[28] = tested on: Homo sapiens; assay: Toxicity in healthy human assessed as increase in blood […] at 250 […], po once daily for 7 days; type: organism-based; design: route oral; settings: in vivo, 168 h
[29] = Cmax in healthy human at 150 […], po once daily for 7 days measured after 1 day of last dose; type: ADME, organism-based; design: dose 150 mg/kg, route oral; settings: in vivo
[30] = tested on: Homo sapiens; assay: Toxicity in healthy human assessed as fatigue at 200 […], po once daily for 7 days; type: organism-based; design: route oral; settings: in vivo, 168 h
[31] = tested on: Homo sapiens; assay: Toxicity in healthy human assessed as EEG abnormality at 200 mg/kg, po administered as single dose; type: organism-based; design: dose 200 mg/kg, route oral; settings: in vivo
[32] = tested on: Homo sapiens; assay: Toxicity in healthy human assessed as EEG abnormality at 200 mg/kg, po once daily for 7 days; type: organism-based; design: dose 200 mg/kg, route oral; settings: in vivo, 168 h
[33] = tested on: Homo sapiens; assay: Toxicity in healthy human assessed as EEG abnormality at 150 […], po once daily for 7 days; type: organism-based; design: dose 150 mg/kg, route oral; settings: in vivo, 168 h
[34] = tested on: Homo sapiens; assay: Toxicity in healthy human assessed as headache at 250 […], po once daily for 7 days; type: organism-based; design: route oral; settings: in vivo, 168 h
[35] = tested on: Homo sapiens; assay: Toxicity in healthy human assessed as headache at 300 […], po administered as single dose; type: organism-based; design: route oral; settings: in vivo

COC[C@@H](c1ccc(C(F)(F)F)cc1)N1CCN(C2(C)CCN(C(=O)c3c(C)ncnc3C)CC2)C[C@@H]1C [VICRIVIROC]
Activity [1]: 0%
AUC at 24 h [2]: 5390 ng·h/mL
Activity [3]: 13%
Cmax [4]: 838 ng/mL
Activity [5]: 0%
Tmax [6]: 1.75 h
Activity [7]: 0%
Tmax [8]: 2 h
Activity [9]: 38%
AUC at 24 h [10]: 6060 ng·h/mL
Activity [11]: 50%
Activity [12]: 20%
Activity [13]: 0%
AUC at 24 h [14]: 6670 ng·h/mL
Activity [15]: 20%
Cmax [16]: 949 ng/mL
Activity [17]: 0%
Activity [18]: 13%
Cmax [19]: 984 ng/mL
Activity [20]: 17%
AUC at 24 h [21]: 8140 ng·h/mL
Activity [22]: 0%
AUC(0-inf) [23]: 11000 ng·h/mL
AUC(0-inf) [24]: 10100 ng·h/mL
Activity [25]: 17%
Activity [26]: 13%
Activity [27]: 10%
Activity [28]: 10%
Cmax [29]: 474 ng/mL
Activity [30]: 0%
Activity [31]: 0%
Activity [32]: 0%
Activity [33]: 0%
Activity [34]: 25%
Activity [35]: 13%
